According to US10428051B2 (priority 2015, dated 2019):

Target: human σ1 receptor (Homo sapiens, UniProt Q99720)
Experiment: biochemical
Type: binding
Set-up: μ and σ1 dual (binding to the σ1 receptor and the μ-opioid receptor expressed as Ki): key to the marks not given beside the values

Chain of human σ1 receptor (Q99720 whole entry): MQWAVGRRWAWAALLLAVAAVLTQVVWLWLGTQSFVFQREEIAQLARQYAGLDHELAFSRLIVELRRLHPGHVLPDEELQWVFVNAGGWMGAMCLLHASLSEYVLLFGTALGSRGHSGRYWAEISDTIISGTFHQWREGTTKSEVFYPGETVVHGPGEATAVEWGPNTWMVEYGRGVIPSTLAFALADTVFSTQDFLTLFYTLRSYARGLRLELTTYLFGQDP

Row | Structure (SMILES) | Ki [nM] | μ and σ1 dual (binding to the σ1 receptor and the μ-opioid receptor expressed as Ki)
1 | CCC(=O)N(CC1(N2CCN(Cc3ccccc3)CC2)CCOCC1)c1ncccc1C(F)(F)F [Example 59, N-((4-(4-benzylpiperazin-1-yl)tetrahydro-2H-pyran-4-yl)methyl)-N-(3-(trifluoromethyl)pyridin-2-yl)propionamide] | < 500 | –
2 | CCC(=O)N(CC1(N2CCN(Cc3ccccc3)CC2)CCOCC1)c1nc(C(F)(F)F)ccc1C#N [Example 60, N-((4-(4-benzylpiperazin-1-yl)tetrahydro-2H-pyran-4-yl)methyl)-N-(3-cyano-6-(trifluoromethyl)pyridin-2-yl)propionamide] | < 500 | –
3 | CCC(=O)N(CC1(N2CCN(Cc3ccccc3)CC2)CCOCC1)c1ccc(F)c(C#N)n1 [Example 61, N-((4-(4-benzylpiperazin-1-yl)tetrahydro-2H-pyran-4-yl)methyl)-N-(6-cyano-5-fluoropyridin-2-yl)propionamide] | < 500 | –
4 | CCC(=O)N(CC1(N2CCN(CC(C)C)CC2)CCOCC1)c1ncccc1C#N [Example 62, N-(3-cyanopyridin-2-yl)-N-((4-(4-isobutylpiperazin-1-yl)tetrahydro-2H-pyran-4-yl)methyl)propionamide] | – | ++
5 | CCC(=O)N(CC1(N2CCN(CC(C)C)CC2)CCOCC1)c1ncccc1C(F)(F)F [Example 63, N-((4-(4-isobutylpiperazin-1-yl)tetrahydro-2H-pyran-4-yl)methyl)-N-(3-(trifluoromethyl)pyridin-2-yl)propionamide] | – | ++
6 | CCC(=O)N(CC1(N2CCN(Cc3ccccc3)CC2)CCOC(C)(C)C1)c1ncccc1F (stereo not shown) [Example 64, N-((4-(4-benzylpiperazin-1-yl)-2,2-dimethyltetrahydro-2H-pyran-4-yl)methyl)-N-(3-fluoropyridin-2-yl)propionamide] | < 500 | –
7 | CCC(=O)N(CC1(N2CCN(Cc3ccccc3)CC2)CCOC(C)(C)C1)c1cccc(C#N)n1 (stereo not shown) [Example 65, N-((4-(4-benzylpiperazin-1-yl)-2,2-dimethyltetrahydro-2H-pyran-4-yl)methyl)-N-(6-cyanopyridin-2-yl)propionamide] | < 500 | –
8 | CCC(=O)N(CC1(N2CCN(Cc3ccccc3)CC2)CCOC(C)(C)C1)c1ncccc1C(F)(F)F (stereo not shown) [Example 67, N-((4-(4-benzylpiperazin-1-yl)-2,2-dimethyltetrahydro-2H-pyran-4-yl)methyl)-N-(3-(trifluoromethyl)pyridin-2-yl)propionamide] | < 500 | –
9 | CCC(=O)N(CC1(N2CCN(Cc3ccccc3)CC2)CCOC(C)(C)C1)c1ncccc1C#N (stereo not shown) [Example 68, N-((4-(4-benzylpiperazin-1-yl)-2,2-dimethyltetrahydro-2H-pyran-4-yl)methyl)-N-(3-cyanopyridin-2-yl)propionamide] | – | ++
10 | CCC(=O)N(CC(C)(C)N1CCN(CCc2ccccc2F)CC1)c1ncccc1F [Example 69, N-(2-(4-(2-fluorophenethyl)piperazin-1-yl)-2-methylpropyl)-N-(3-fluoropyridin-2-yl)propionamide] | – | ++
11 | CCC(=O)N(CC(C)(C)N1CCN(CCc2ncccc2F)CC1)c1ccccn1 [Example 70, N-(2-(4-(2-(3-fluoropyridin-2-yl)ethyl)piperazin-1-yl)-2-methylpropyl)-N-(pyridin-2-yl)propionamide] | – | ++
12 | CCC(=O)N(CC(C)(C)N1CCN(CCc2ncccc2F)CC1)c1ccccc1F [Example 71, N-(2-fluorophenyl)-N-(2-(4-(2-(3-fluoropyridin-2-yl)ethyl)piperazin-1-yl)-2-methylpropyl)propionamide] | – | ++
13 | CCC(=O)N(CC(C)(C)N1CCN(CCc2ncccc2F)CC1)c1ccccc1 [Example 72, N-(2-(4-(2-(3-fluoropyridin-2-yl)ethyl)piperazin-1-yl)-2-methylpropyl)-N-phenylpropionamide] | – | ++
14 | CCC(=O)N(CC(C)(C)N1CCN(CCOC(C)C)CC1)c1ncccc1F [Example 73, N-(3-fluoropyridin-2-yl)-N-(2-(4-(2-isopropoxyethyl)piperazin-1-yl)-2-methylpropyl)propionamide] | – | ++
15 | CCC(=O)N(CC(C)(C)N1CCN(CC(C)C)CC1)c1ncccc1F [Example 74, N-(3-fluoropyridin-2-yl)-N-(2-(4-isobutylpiperazin-1-yl)-2-methylpropyl)propionamide] | – | ++
16 | CCC(=O)N(CC1(N2CCN(Cc3ccccc3)CC2)CC1)c1cccnc1C(F)(F)F [Example 76, N-((1-(4-benzylpiperazin-1-yl)cyclopropyl)methyl)-N-(2-(trifluoromethyl)pyridin-3-yl)propionamide] | < 500 | –
17 | CCC(=O)N(CC1(N2CCN(Cc3ccccc3)CC2)CC1)c1cnccc1C(F)(F)F [Example 78, N-((1-(4-benzylpiperazin-1-yl)cyclopropyl)methyl)-N-(4-(trifluoromethyl)pyridin-3-yl)propionamide] | < 500 | –
18 | CCC(=O)N(CC1(N2CCN(Cc3ccccc3)CC2)CC1)c1ncccc1C#N [Example 80, N-((1-(4-benzylpiperazin-1-yl)cyclopropyl)methyl)-N-(3-cyanopyridin-2-yl)propionamide] | < 500 | –
19 | CCC(=O)N(CC1(N2CCN(Cc3ccccc3)CC2)CCOCC1)c1ccc(F)cc1 [Example 81, N-((4-(4-benzylpiperazin-1-yl)tetrahydro-2H-pyran-4-yl)methyl)-N-(4-fluorophenyl)propionamide] | < 500 | –
20 | CCC(=O)N(CC1(N2CCN(Cc3ccccc3)CC2)CCOCC1)c1ncccc1F [Example 82, N-((4-(4-benzylpiperazin-1-yl)tetrahydro-2H-pyran-4-yl)methyl)-N-(3-fluoropyridin-2-yl)propionamide] | < 100 | –
21 | CCC(=O)N(CC1(N2CCN(Cc3ccccc3)CC2)CCOCC1)c1cccc(C#N)n1 [Example 84, N-((4-(4-benzylpiperazin-1-yl)tetrahydro-2H-pyran-4-yl)methyl)-N-(6-cyanopyridin-2-yl)propionamide] | < 500 | –
22 | CCC(=O)N(CC1(N2CCN(CC(C)C)CC2)CCOCC1)c1cccc(C#N)n1 [Example 85, N-(6-cyanopyridin-2-yl)-N-((4-(4-isobutylpiperazin-1-yl)tetrahydro-2H-pyran-4-yl)methyl)propionamide] | > 500 | –
23 | CCC(=O)N(CC1(N2CCN(CCC(C)C)CC2)CCOCC1)c1cccc(C#N)n1 [Example 86, N-(6-cyanopyridin-2-yl)-N-((4-(4-isopentylpiperazin-1-yl)tetrahydro-2H-pyran-4-yl)methyl)propionamide] | < 500 | –
24 | CCC(=O)N(CC1(N2CCN(CC(C)C)CC2)CCOC(C)(C)C1)c1cccc(C#N)n1 (stereo not shown) [Example 87, N-(6-cyanopyridin-2-yl)-N-((4-(4-isobutylpiperazin-1-yl)-2,2-dimethyltetrahydro-2H-pyran-4-yl)methyl)propionamide] | > 500 | –
25 | CCC(=O)N(CC1(N2CCN(CCC(C)C)CC2)CCOC(C)(C)C1)c1cccc(C#N)n1 (stereo not shown) [Example 88, N-(6-cyanopyridin-2-yl)-N-((4-(4-isopentylpiperazin-1-yl)-2,2-dimethyltetrahydro-2H-pyran-4-yl)methyl)propionamide] | – | ++
